Data on 5 compounds can be found in PubChem BioAssay AID2060488 (Molecular Pharmacology Branch, DTP, NCI, 2025).

pIC50: −log10 of the molar value. “And” between values parts separate entries of the source, which are not always exact repeats. Identical values can stand only once.

This assay deals with 966289-007-R4-J1-PDC complex spheroid viability. As to the kind of experiment: Anticancer human tumor 966289-007-R4-J1-PDC patient-derived pancreatic adenocarcinoma cell line growth inhibition [GQUAD]. To be noted: for viability, T/C: stronger effect = lower value. From the text: DNA G-quadruplex Stabilizer Agents in Combinations in Complex Spheroids
A high-throughput screen of multi-cell type tumor spheroids was designed to identify active combinations of DNA G-quadruplex stabilizer agents and targeted small molecules. Complex spheroids include a stromal component modeled by human endothelial cells (HUVEC) and fibroblasts modeled by human mesenchymal stem cells (MSCs). The concentration ranges selected for each drug and investigational agent were based upon clinically achievable concentrations if the clinical Cmax of the agent was known.
Compounds. The drugs and investigational agents: pidnarulex (CX-5461; NSC782164), APTO-253 (NSC789042), BRACO-19 (NSC847499), peposertib (NSC802822), ceralasertib (NSC780249), elimusertib (NSC800525), camonsertib (NSC841442), AZD-1390 (NSC803789), olaparib (NSC753686), talazoparib (NSC767125), ART-558 (NSC835418), sotorasib (NSC818433), MRTX-1133 (NSC836407), SN-38 (NSC673596), topotecan (NSC609699), etoposide (NSC141540), doxorubicin (NSC123127), gemcitabine (NSC613327), 5-fluorouracil (NSC19893), paclitaxel (NSC125973), vemurafenib (NSC761431), panobinostat (NSC761190), R-306465 (JNJ-16241199; NSC773264), adavosertib (NSC754352), TP-3654 (NSC805149), carboplatin (NSC241240), KSQ-4279 (NSC840948), and staurosporine (NSC755774) were obtained from the National Cancer Institute (NCI) Developmental Therapeutics Program Chemical Repository (34). The FDA-approved anticancer drug set is available from the NCI Developmental Therapeutics Program. […] The stock solutions were prepared in dimethyl sulfoxide (DMSO, Sigma-Aldrich, St. Louis, MO, cat. D2650) at 800-fold the tested concentration and stored at -70 degrees C prior to their use. All drugs and investigational agents were tested over a range starting from a high concentration at or near the clinical Cmax and decreasing in half-log increments. If the clinical Cmax for an agent had not been determined, the highest concentration tested was 10 microM.
2.3 Cell Culture. All cells were maintained in an incubator at 37 degrees C and 5% CO2 with 95% humidity. The PDC lines were cultured according to standard operating procedures established by the NCI PDMR. All PDCs were thawed and cultured in Matrigel-coated flasks prepared with a working solution of 1X Ham's F-12 nutrient mix, without supplementation (Invitrogen, cat. 11765054), 100 U/mL penicillin-streptomycin (Invitrogen, cat. 15140122), and 2.5% Matrigel (Corning Inc., cat. 354248) for the first three passages. The 857933-349-R-J2-PDC line was cultured in 6C/Colon 1B media, which includes advanced DMEM/F-12 (Thermo Fisher Scientific, cat. 12634028), 10 mM HEPES (Thermo Fisher Scientific, cat. 15630080), 1X GlutaMAX supplement (Thermo Fisher Scientific, cat. 35050061), 0.1 mg/mL primocin (InvivoGen, cat. ant-pm-2), 10% defined fetal bovine serum, heat inactivated (HyClone Laboratories Inc., cat. SH30070.03HI), 50% L-WRN conditioned media (ATCC, cat. CRL-3276), 1.25 mM N-Acetyl-L-cysteine (Sigma-Aldrich, cat. A9165), 10 mM nicotinamide (Sigma-Aldrich, cat. N0636), 1X B-27 supplement (Thermo Fisher Scientific, cat. 17504044), 1X N-2 supplement (Thermo Fisher Scientific, cat. 17502048), 10 microM Y-27632 dihydrochloride (Tocris Bioscience, cat. 1254), and 50 ng/mL human EGF recombinant protein (Thermo Fisher Scientific, cat. PHG0311). The 485176-168-R4-J1-PDC line was cultured in Panc media, which includes all 6C/Colon 1B media components plus 100 ng/mL human FGF-10 (Thermo Fisher Scientific, cat. 100-26), 500 nM SB-431542 (Selleckchem, cat. S1067), and gastrin (Tocris, cat. 3006).
[…]

The mark [1] stands for this setting: curve of first compound, second compound 0.0316 µM.
Where [2] appears, read: curve of first compound, second compound 0.1 µM.
The mark [3] stands for this setting: curve of first compound, second compound 0.316 µM.
Where [4] appears, read: curve of first compound, second compound 1 µM.
[5] abbreviates: curve of first compound, second compound 3.16 µM.
[6] abbreviates: curve of first compound, second compound 10 µM.
The mark [7] stands for this setting: second compound 0.0316 µM, first compound 0.0316 µM.
Where [8] appears, read: second compound 0.0316 µM, first compound 0.1 µM.
[9] abbreviates: second compound 0.0316 µM, first compound 0.316 µM.
Setting [10] is: second compound 0.0316 µM, first compound 1 µM.
Setting [11] is: second compound 0.0316 µM, first compound 3.16 µM.
[12] abbreviates: second compound 0.0316 µM, first compound 10 µM.
Setting [13] is: second compound 0.1 µM, first compound 0.0316 µM.
Where [14] appears, read: second compound 0.1 µM, first compound 0.1 µM.
Where [15] appears, read: second compound 0.1 µM, first compound 0.316 µM.
Where [16] appears, read: second compound 0.1 µM, first compound 1 µM.
[17] abbreviates: second compound 0.1 µM, first compound 3.16 µM.
[18] abbreviates: second compound 0.1 µM, first compound 10 µM.
Where [19] appears, read: second compound 0.316 µM, first compound 0.0316 µM.
[20] abbreviates: second compound 0.316 µM, first compound 0.1 µM.
Setting [21] is: second compound 0.316 µM, first compound 0.316 µM.
Setting [22] is: second compound 0.316 µM, first compound 1 µM.
Where [23] appears, read: second compound 0.316 µM, first compound 3.16 µM.
The mark [24] stands for this setting: second compound 0.316 µM, first compound 10 µM.
[25] abbreviates: second compound 1 µM, first compound 0.0316 µM.
Where [26] appears, read: second compound 1 µM, first compound 0.1 µM.
[27] abbreviates: second compound 1 µM, first compound 0.316 µM.
[28] abbreviates: second compound 1 µM, first compound 1 µM.
Setting [29] is: second compound 1 µM, first compound 3.16 µM.
[30] abbreviates: second compound 1 µM, first compound 10 µM.
Setting [31] is: second compound 3.16 µM, first compound 0.0316 µM.
[32] abbreviates: second compound 3.16 µM, first compound 0.1 µM.
Setting [33] is: second compound 3.16 µM, first compound 0.316 µM.
[34] abbreviates: second compound 3.16 µM, first compound 1 µM.
Setting [35] is: second compound 3.16 µM, first compound 3.16 µM.
The mark [36] stands for this setting: second compound 3.16 µM, first compound 10 µM.
Setting [37] is: second compound 10 µM, first compound 0.0316 µM.
The mark [38] stands for this setting: second compound 10 µM, first compound 0.1 µM.
Where [39] appears, read: second compound 10 µM, first compound 0.316 µM.
Setting [40] is: second compound 10 µM, first compound 1 µM.
Setting [41] is: second compound 10 µM, first compound 3.16 µM.
The mark [42] stands for this setting: second compound 10 µM, first compound 10 µM.

Usually pIC50 stands for the IC50 on a negative log10 scale, so that one unit is a factor of ten. The viability, T/C is the ratio of treated to control.
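Note: spheroids exposed to the agents for seven days before readout.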
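Throughout, for viability, T/C: percent viability relative to DMSO vehicle control wells taken as 100%.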

As for `C=CC(=O)N1CCN(c2nc(=O)n(-c3c(C)ccnc3C(C)C)c3nc(-c4c(O)cccc4F)c(F)cc23)C(C)C1` (stereo not given) + Cc1[nH]c2ccc(F)cc2c1-c1nc2c3cccnc3c3ncccc3c2[nH]1, the pIC50 reads like this: under setting [1], < 5.00; under setting [2], < 5.00; under setting [3], < 5.00; under setting [4], < 5.00; under setting [5], < 5.00; under setting [6], < 5.00. The viability, T/C under setting [7] is 99.9%; the viability, T/C under setting [8] was 94.1%; the viability, T/C under setting [9] was 103%; the viability, T/C under setting [10] was 93.8%; the viability, T/C under setting [11] was 105%; the viability, T/C under setting [12] was 107%. Moreover, the viability, T/C is 105% under setting [13]; 96.6% under setting [14]; 103% under setting [15]; 95.2% under setting [16]; 102% under setting [17]; 114% under setting [18]. In addition, the viability, T/C was 97.4% under setting [19]; 99.7% under setting [20]; 90.3% under setting [21]; 106% under setting [22]; 104% under setting [23]; 111% under setting [24]. Further, the viability, T/C by setting is: under setting [25], 95.4%; under setting [26], 103%; under setting [27], 105%; under setting [28], 98.4%; under setting [29], 86.1%; under setting [30], 109%. Also, the viability, T/C is, setting by setting: under setting [31], 101%; under setting [32], 101%; under setting [33], 111%; under setting [34], 100%; under setting [35], 108%; under setting [36], 101%. Besides, the viability, T/C is, setting by setting: under setting [37], 99.2%; under setting [38], 98%; under setting [39], 104%; under setting [40], 101%; under setting [41], 94.4%; under setting [42], 76.8%.

As to `COc1ncnc(C2CC2)c1-c1ncc2cnn(Cc3ccc(-c4nc(C(F)(F)F)cn4C(C)C)cc3)c2n1`, the viability, T/C runs as follows: (compound 0.0316 µM) 92.2% and 102% and 104%; (compound 0.1 µM) 102% and 103% and 100%; (compound 0.316 µM) 101% and 102% and 100%; (compound 1 µM) 107% and 98% and 97%; (compound 3.16 µM) 103% and 106% (2×); (compound 10 µM) 116% and 108% (2×). For the setting “curve of compound”, the pIC50 is < 5.00.

Take `CCCS(=O)(=O)Nc1ccc(F)c(C(=O)c2c[nH]c3ncc(-c4ccc(Cl)cc4)cc23)c1F`: the viability, T/C was 109% and 105% and 99.4% (compound 0.0316 µM); 102% and 96% and 99.5% (compound 0.1 µM); 111% (2×) and 97.8% (compound 0.316 µM); 110% and 106% and 114% (compound 1 µM); 114% (2×) and 108% (compound 3.16 µM); 37.5% and 36.5% and 38% (compound 10 µM). The pIC50 (curve of compound) is 5.09 and 5.10.

On to `Nc1ccn(C2OC(CO)C(O)C2(F)F)c(=O)n1` (stereo not given), for which the viability, T/C (compound 0.0316 µM) is 6.63% and 12% and 8.01%; the viability, T/C (compound 0.1 µM) was 0.75% and 1.27% and 0.79%; the viability, T/C (compound 0.316 µM) was 0.96% and 0.9% and 0.65%; the viability, T/C (compound 1 µM) was 0.7% and 0.97% and 0.68%; the viability, T/C (compound 3.16 µM) was 0.83% and 1.32% and 0.61%; the viability, T/C (compound 10 µM) was 0.79% and 1.07% and 0.63%. For the same compound, for the setting “curve of compound”, the pIC50 is > 7.50.

For the compound `COc1cc(C2c3cc4c(cc3C(OC3OC5COC(C)OC5C(O)C3O)C3COC(=O)C23)OCO4)cc(OC)c1O` (stereo not given) + CN(C)c1ccc(Nc2c3ccc(NC(=O)CCN4CCCC4)cc3nc3cc(NC(=O)CCN4CCCC4)ccc23)cc1, the pIC50 is, setting by setting: under setting [1], 6.52; under setting [2], 6.52; under setting [3], 6.57; under setting [4], 6.56; under setting [5], 6.57; under setting [6], 6.69. Besides, the viability, T/C is 115% under setting [7]; 105% under setting [8]; 46.6% under setting [9]; 9.16% under setting [10]; 1.79% under setting [11]; 0.77% under setting [12]. Further, the viability, T/C runs as follows: under setting [13], 111%; under setting [14], 107%; under setting [15], 46.6%; under setting [16], 9.53%; under setting [17], 1.99%; under setting [18], 0.86%. The viability, T/C reads like this: under setting [19], 101%; under setting [20], 104%; under setting [21], 41.9%; under setting [22], 5.72%; under setting [23], 2.08%; under setting [24], 0.76%. For the same compound, the viability, T/C by setting is: under setting [25], 104%; under setting [26], 109%; under setting [27], 42.4%; under setting [28], 6.82%; under setting [29], 1.89%; under setting [30], 1.07%. Moreover, the viability, T/C under setting [31] is 96.1%; the viability, T/C under setting [32] was 108%; the viability, T/C under setting [33] is 41.8%; the viability, T/C under setting [34] is 6.04%; the viability, T/C under setting [35] was 2.44%; the viability, T/C under setting [36] was 0.87%. In addition, the viability, T/C is 108% under setting [37]; 98.1% under setting [38]; 19.4% under setting [39]; 3.24% under setting [40]; 1.49% under setting [41]; 0.61% under setting [42].
